# Measured values: patent US20250326722A1 (SHANGHAI HANSOH BIOMEDICAL CO., LTD., priority 2022, published 2025)
# Experiments:
# [1] = biological target: PCSK9 secreted by HepG2 cells (Homo sapiens (Human), UniProt Q8NBP7); assay: Effect on the concentration of PCSK9 secreted by HepG2 cells (ELISA); assay type: cell-based; settings: 48 hours incubation, read-out: Inhibitory activity on PCSK9, IC50
# [2] = test system: LDLR level in HepG2 cells; assay: Effect on the LDLR level in HepG2 cells (ELISA); assay type: cell-based, human; design: concentration or dose not given beside the values; settings: 48 hours incubation, LDLR ELISA of lysate
# Protocol: To detect the effect of the compounds on the LDLR protein level.
# Envision (PE-Cisbio: 2105-0020), centrifuge (Eppendorf: 5810R), water purifier (THERMO: Pacific T II+Micropure), plate washer (Thermo: […] VERSA), and microplate shaker (Thermo: 88882006)
# • 1) HepG2 cell strain was cultured in the complete culture medium at 37° C., 5% CO2 to 70-90% confluence. • 2) The cells were digested and resuspended in the experimental culture medium, inoculation was performed at 25,000 cells/well/200 μL in a 96-well cell culture plate, and the cells were cultured at 37° C., 5% CO2 for 20-24 hours. • 3) The culture medium was removed from the cell culture plate, and the cell culture plate was washed once by adding 200 μl of the experimental culture medium to each well. • 4) Preparation of positive control compound and compound to be tested: the positive control compound and the compound to be tested were diluted on the compound plate. • 5) The diluted compound was added to the cell culture plate at 250 μL per well and incubated at 37° C. and 5% CO2 for 48 hours. • 6) The cell culture medium was removed, the cells were washed with PBS, and 50 μL of the cell lysis buffer and the protein inhibitor were added. • 7) After centrifugation, the lysate was removed and the sample was stored for later use. • 8) Preparation of standard curve: corresponding volumes of Dilution buffer were successively added to respective standard tubes, and the standard was diluted in series by taking the corresponding volume from the original tube or the last concentration tube. • 9) Preparation of washing liquid: 10× Wash buffer was diluted into 1× with Milli-Q for later use. • 10) According to the standard curve wells and sample wells set according to a plate map, 80 μL/well of the corresponding standards and samples were added to the wells, with 2 replicate wells. A well in which no standard was added was used as a background value well. A self-adhesive seal was applied, the plate was placed on a plate shaker at room temperature, gently shaken, uniformly mixed, and incubated for 2 hours. • 11) The plate was placed on the plate washer, the washing liquid was set to 350 μL per well, and the plate was washed 4 times repeatedly. • 12) 200 μL of Human LDLR conjugate was added, a self-adhesive seal was applied, and the plate was placed on the plate shaker, well mixed uniformly, and incubated for 2 hours. • 13) The plate was placed on the plate washer, the washing liquid was set to 350 μL per well, and the plate was washed 4 times repeatedly. • 14) 200 μL/well of Substrate solution was added, and the plate was placed in the dark, applied with a self-adhesive seal, placed on the plate shaker, well mixed uniformly, and incubated for 20 minutes. • 15) 50 μL/well of Stop solution was added and mixed uniformly over 20 min. • 16) The optical density (OD) value in each well was measured in sequence at a wavelength of 450 nm by the microplate reader.
# After the OD values were read by the microplate reader, the OD value of the 0-concentration standard in the standard group was subtracted from the OD values of the standards, control group, and samples to obtain the actual OD values for these wells. A standard curve was plotted with Graphpad and the concentration of the sample was calculated. If the dilution was performed during the sample detection, the calculated sample concentration was necessarily multiplied by the corresponding dilution ratio in the final calculation, which was the actual concentration of the sample. Concentration increase %=(actual concentration in control-actual concentration in sample)/actual concentration in control*100.
# [3] = Pharmacokinetic determination in mice (plasma); assay type: in vivo, C57BL/6J mice; settings: C57 mice, PO administration, 5 mpk; for AUC(0-inf) / half-life / MRT / Cmax: male, C57BL/6J, mouse, 5 mg/kg; for AUC(0-inf): read-out: Area under the curve AUC0-∞; for half-life: read-out: Half-life t1/2 (converted); for MRT: read-out: Mean residence time MRT; for Cmax: read-out: Plasma concentration Cmax
# Outline: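 Male C57BL/6J mice (n=3 per route), fasted overnight, got 5 mg/kg PO in 10% Solutol HS15 or 1 mg/kg IV in 5% DMSO/10% Solutol HS15/85% PBS. Orbital blood was sampled at 0.083 (IV only), 0.25, 0.5, 1, 2, 4, 8 and 24 h. EDTA-K2 plasma was quantified by LC-MS/MS for PK parameters.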
# [4] = test system: hyperlipidemia animal model of B6-hPCSK9 transgenic mice; assay: In vivo pharmacodynamics in hyperlipidemia animal model of B6-hPCSK9 transgenic mice; design: species or system B6-hPCSK9 transgenic C57 mice; settings: PO administration, Day 14, high-fat feed
# Protocol: The compounds of the present disclosure were evaluated for in vivo pharmacodynamics in a hyperlipidemia animal model of B6-hPCSK9 transgenic mice.
# B6-hPCSK9 transgenic C57 mice, 6-8 weeks old, male, purchased from Jiangsu GemPharmatech Co., Ltd.
# After delivery to a barrier system, the animals were given one week for acclimatization and began to feed on the high-fat feed. The body weight and feed weight were weighed once a week, and the body weight and food intake thereof were recorded.
# a. The animals were grouped by a random grouping method.
# c. According to the grouping results, administration with the test drug was started (mode of administration: oral administration; administration volume: 10 mL/kg; frequency of administration: once/day or single administration; administration cycle: 21 days; vehicle: 10% Solutol HS 15/90% Saline).
# d. After the test drug was administered, the body weight and feed weight were weighed twice a week and blood was taken once a week.
# e. The data was processed with software such as Excel. […] PCSK9 in plasma was detected by ELISA.
# [5] = biological target: PCSK9 protein (Homo sapiens (Human), UniProt Q8NBP7); assay: Binding experiment: surface plasmon resonance (SPR) binding to PCSK9 protein
# Text: • 1. Experimental objective: To detect the action of compounds to bind PCSK9 protein by a conventional surface plasmon resonance (SPR) method.
# Sequence of PCSK9 secreted by HepG2 cells (Q8NBP7 153-692): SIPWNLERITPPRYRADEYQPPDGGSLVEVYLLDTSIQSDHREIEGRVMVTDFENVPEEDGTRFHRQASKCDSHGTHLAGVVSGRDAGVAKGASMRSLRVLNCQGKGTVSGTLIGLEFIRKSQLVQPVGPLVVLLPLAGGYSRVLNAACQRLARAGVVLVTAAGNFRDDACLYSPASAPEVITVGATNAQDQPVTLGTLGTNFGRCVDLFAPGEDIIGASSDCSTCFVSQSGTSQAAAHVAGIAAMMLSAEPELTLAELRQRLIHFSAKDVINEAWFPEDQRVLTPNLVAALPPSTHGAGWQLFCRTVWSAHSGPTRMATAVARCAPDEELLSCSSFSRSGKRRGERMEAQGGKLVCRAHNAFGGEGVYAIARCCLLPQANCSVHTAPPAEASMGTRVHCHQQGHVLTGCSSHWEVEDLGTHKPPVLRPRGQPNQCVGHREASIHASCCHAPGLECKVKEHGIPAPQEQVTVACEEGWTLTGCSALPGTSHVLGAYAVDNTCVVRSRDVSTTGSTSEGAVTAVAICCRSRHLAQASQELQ
# Sequence of PCSK9 secreted by HepG2 cells (Q8NBP7 31-152 partner): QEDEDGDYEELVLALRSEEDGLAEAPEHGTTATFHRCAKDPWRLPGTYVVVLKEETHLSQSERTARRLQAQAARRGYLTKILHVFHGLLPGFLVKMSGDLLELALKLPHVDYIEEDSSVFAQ
# Sequence of PCSK9 protein (Q8NBP7 153-692): as the sequence (Q8NBP7 153-692) above
SMILES,IC50 [1] [µM],Time to peak tmax [3] [h],AUC(0-inf) [3] [ng·h/mL],half-life [3] [h],MRT [3] [h],Cmax [3] [ng/mL],Kd [5] [µM],LDLR expression level [2] [%],"LDL-C change, Day 14 ([4]; 10 mpk) [%]","LDL-C change, Day 14 ([4]; 5 mpk) [%]","LDL-C change, Day 14 ([4]; 3 mpk) [%]"
O=c1c(-c2ccc(N[C@H]3CC[C@H](Nc4ncc(OC(F)F)cn4)C3)nc2)ccc2ccccn12 [Example 47],18,–,–,–,–,–,–,859,–,–,–
FC(F)Oc1cnc(N[C@H]2CC[C@H](Nc3ccc(-c4cccn5ccnc45)cn3)C2)nc1 [Example 53],24.1,–,–,–,–,–,–,175,–,–,–
"O=c1ccccn1-c1ccc(N[C@H]2CC[C@H](Nc3ncc4cccn4n3)C2)nc1 [Example 20, 6′-(((1S,3S)-3-(pyrrolo[2,1-f][1,2,4]triazin-2-ylamino)cyclopentyl)amino)-2H-[1,3′-bipyridinyl]-2-one]",14,–,–,–,–,–,0.0024,302,–,–,–
"FC(F)Oc1cnc(N[C@H]2CC[C@H](Nc3ccc(-c4cccc5ccnn45)cn3)C2)nc1 [Example 52, (1S,3S)—N1-(5-(difluoromethoxy)pyrimidin-2-yl)-N3-(5-(pyrazolo[1,5-a]pyridin-7-yl)pyridin-2-yl)cyclopentane-1,3-diamine]",11,–,–,–,–,–,–,278,–,–,–
"O=C1c2ccncc2CN1c1ccc(N[C@H]2CC[C@H](Nc3ncc(OC(F)F)cn3)C2)nc1 [Example 76, 2-(6-(((1S,3S)-3-((5-(difluoromethoxy)pyrimidin-2-yl)amino)cyclopentyl)amino)pyridin-3-yl)-2,3-dihydro-1H-pyrrolo[3,4-c]pyridin-1-one]",12.1,–,–,–,–,–,–,156,–,–,–
"O=C1c2ncccc2CN1c1ccc(N[C@H]2CC[C@H](Nc3ncc(OC(F)F)cn3)C2)nc1 [Example 57, 6-(6-(((1S,3S)-3-((5-(difluoromethoxy)pyrimidin-2-yl)amino)cyclopentyl)amino)pyridin-3-yl)-5,6-dihydro-7H-pyrrolo[3,4-b]pyridin-7-one]",22,1,41500,5.9,4.8,9960,–,–,–,–,−46.22

# More lines, main results first:
IC50 [1] [µM],Time to peak tmax [3] [h],AUC(0-inf) [3] [ng·h/mL],half-life [3] [h],MRT [3] [h],Cmax [3] [ng/mL],Kd [5] [µM],SMILES,LDLR expression level [2] [%],"LDL-C change, Day 14 ([4]; 10 mpk) [%]","LDL-C change, Day 14 ([4]; 5 mpk) [%]","LDL-C change, Day 14 ([4]; 3 mpk) [%]"
1.3,2,97700,15.1,19,7420,–,"O=C1c2cc(C(F)(F)F)ncc2CN1c1ccc(N[C@H]2CC[C@H](Nc3nc4cc(F)ccn4n3)C2)nc1 [Example 151, 2-(6-(((1S,3S)-3-((7-fluoro-[1,2,4]triazolo[1,5-a]pyridin-2-yl)amino)cyclopentyl)amino)pyridin-3-yl)-6-(trifluoromethyl)-2,3-dihydro-1H-pyrrolo[3,4-c]pyridin-1-one]",138,–,–,–
2.6,–,–,–,–,–,–,"N#Cc1cnn2c(-c3ccc(N[C@H]4CC[C@H](Nc5ncc(OC(F)F)cn5)C4)nc3)cccc12 [Example 99, 7-(6-(((1S,3S)-3-((5-(difluoromethoxy)pyrimidin-2-yl)amino)cyclopentyl)amino)-3-yl) pyrazolo[1,5-a]pyridine-3-carbonitrile]",274,–,–,–
5.9,–,–,–,–,–,–,"O=C1c2nc(C(F)(F)F)ccc2CN1c1ccc(N[C@H]2CC[C@H](Nc3ncc(C4CC4)nn3)C2)nc1 [Example 159, 6-(6-(((1S,3S)-3-((6-cyclopropyl-1,2,4-triazin-3-yl)amino)cyclopentyl)amino)pyridin-3-yl)-2-(trifluoromethyl)-5,6-dihydro-7H-pyrrolo[3,4-b]pyridin-7-one]",105,–,–,–
1.9,4,22400,16.2,19.5,2320,–,"O=C1c2cccc(C(F)(F)F)c2CN1c1ccc(N[C@H]2CC[C@H](Nc3ncc(C(F)(F)F)nn3)C2)nc1 [Example 158, 4-(Trifluoromethyl)-2-(6-(((1S,3S)-3-((6-(trifluoromethyl)-1,2,4-triazin-3-yl)amino)cyclopentyl)amino)pyridin-3-yl) isoindolin-1-one]",–,−28.97,–,–
2.8,–,–,–,–,–,–,"CC(C)(C)c1ccc2c(n1)C(=O)N(c1ccc(N[C@H]3CC[C@H](Nc4nc5cc(F)ccn5n4)C3)nc1)C2 [Example 164, 2-(Tert-butyl)-6-(6-(((1S,3S)-3-((7-fluoro-[1,2,4]triazolo[1,5-a]pyridin-2-yl)amino)cyclopentyl)amino)pyridin-3-yl)-5,6-dihydro-7H-pyrrolo[3,4-b]pyridin-7-one]",254,–,–,–
16.3,–,–,–,–,–,–,"O=S1(=O)CCCCN1c1ccc(N[C@H]2CC[C@H](Nc3ncc(OC(F)F)cn3)C2)nc1 [Example 92, 2-(6-(((1S,3S)-3-((5-(difluoromethoxy)pyrimidin-2-yl)amino)cyclopentyl)amino)pyridin-3-yl)-1,4-butanesulfolactam]",105,–,–,–
–,0.25,8080,4.3,2.1,4720,0.0015,"O=C1c2cccnc2CN1c1ccc(N[C@H]2CC[C@H](Nc3ncc(OC(F)F)cn3)C2)nc1 [Example 77, 6-(6-(((1S,3S)-3-((5-(difluoromethoxy)pyrimidin-2-yl)amino)cyclopentyl)amino)pyridin-3-yl)-6,7-dihydro-5H-pyrrolo[3,4-b]pyridin-5-one]",117,–,–,–
7.4,0.5,9640,3.9,1.5,4880,–,"O=C1c2ncccc2CN1c1ccc(N[C@H]2CC[C@H](Nc3nc4cc(F)ccn4n3)C2)nc1 [Example 129, 6-(6-(((1S,3S)-3-((7-fluoro-[1,2,4]triazolo[1,5-a]pyridin-2-yl)amino)cyclopentyl)amino)pyridin-3-yl)-5,6-dihydro-7H-pyrrolo[3,4-b]pyridin-7-one]",–,–,−21.98,–
2.2,2,76600,4.1,5.8,9360,–,"O=C1c2ncccc2CN1c1ccc(N[C@H]2CC[C@H](Nc3ncc(C(F)(F)F)cn3)C2)nc1 [Example 134, 6-(6-(((1S,3S)-3-((5-(trifluoromethyl)pyrimidin-2-yl)amino)cyclopentyl)amino)-3-yl)-5,6-dihydro-7H-pyrrolo[3,4-b]pyridin-7-one]",–,–,−60.65,–
